Reference: patent US12138341B1 (Technical Institute of Physics and Chemistry, CAS, priority 2023, dated 2024)

Assay: In vivo pharmacokinetics experiment of CBD microneedle in a rat
Set-up: species or system SD rat
Conditions: gavage group (oral administration), FIG. 7

SMILES: C=C(C)[C@@H]1CCC(C)=C[C@H]1c1c(O)cc(CCCCC)cc1O [CBD, cannabidiol]
- time drug concentration in plasma is maintained: 2 days
